Target: KFDV NS5 (Kyasanur Forest disease virus, UniProt D7RF80)
Experiment: biochemical

KFDV NS5, sequence (D7RF80 2518-3410 limits assumed): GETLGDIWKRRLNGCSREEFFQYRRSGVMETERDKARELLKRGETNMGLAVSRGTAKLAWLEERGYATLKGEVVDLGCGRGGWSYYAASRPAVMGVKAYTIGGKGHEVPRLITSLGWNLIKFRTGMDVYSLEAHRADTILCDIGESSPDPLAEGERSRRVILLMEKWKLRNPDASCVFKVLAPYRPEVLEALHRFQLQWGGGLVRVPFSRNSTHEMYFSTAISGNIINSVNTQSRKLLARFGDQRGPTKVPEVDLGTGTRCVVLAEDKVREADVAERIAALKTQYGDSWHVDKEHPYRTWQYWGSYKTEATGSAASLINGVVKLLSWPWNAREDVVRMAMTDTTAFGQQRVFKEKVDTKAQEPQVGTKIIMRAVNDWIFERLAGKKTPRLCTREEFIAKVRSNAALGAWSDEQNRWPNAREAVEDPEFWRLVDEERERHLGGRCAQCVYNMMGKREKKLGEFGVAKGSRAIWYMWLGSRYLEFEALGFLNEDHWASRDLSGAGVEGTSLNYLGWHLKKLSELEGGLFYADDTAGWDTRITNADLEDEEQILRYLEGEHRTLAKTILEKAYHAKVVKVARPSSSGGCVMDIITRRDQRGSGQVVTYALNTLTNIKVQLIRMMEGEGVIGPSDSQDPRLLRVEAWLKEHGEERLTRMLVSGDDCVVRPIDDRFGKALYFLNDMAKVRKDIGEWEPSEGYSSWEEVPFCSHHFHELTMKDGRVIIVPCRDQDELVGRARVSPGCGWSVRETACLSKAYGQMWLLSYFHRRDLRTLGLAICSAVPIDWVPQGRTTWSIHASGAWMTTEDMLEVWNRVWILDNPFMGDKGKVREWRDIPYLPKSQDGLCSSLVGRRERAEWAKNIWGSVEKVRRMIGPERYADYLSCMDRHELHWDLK

SMILES	IC50 [µM]
CC(C)OC(=O)[C@H](C)N[P@](=O)(OC[C@H]1O[C@@H](n2ccc(=O)[nH]c2=O)[C@](C)(F)[C@@H]1O)Oc1ccccc1 [Sofosbuvir, L-Alanine, N-[[P(S),2’R]-2’-deoxy-2’-fluoro-2’-methyl-P-phenyl-5’-uridylyl]-,1-methyl ethyl ester]	3.45 ± 0.012
C[C@@]1(F)[C@H](O)[C@@H](COP(=O)(O)OP(=O)(O)OP(=O)(O)O)O[C@H]1n1ccc(=O)[nH]c1=O [sofosbuvir triphosphate, β-D-2’-deoxy-2’-fluoro-2’-C-methyluridine 5’-triphosphate]	3.73 ± 0.033

From doi:10.1101/2022.06.29.498065v2 (biorxiv, 2022)
